US9750788B2 (priority 2013, dated 2017)
Converted amounts (≈) assume the structure as drawn. Square brackets hold non-standard residues; d marks the D form. Peptide text beside a SMILES is read from it. Aib = CC(C)(N)C(=O)O

Columns and labels:
in vivo = settings: mouse, sc, 1 mg/kg
Experimental: Mice were dosed 1 mg/kg subcutaneously (s.c.). The mice were sacrificed and blood samples were collected after 0.25, 0.5, 1, 2, 4, 8, 16 and 24 hours post application. Plasma samples were analyzed after protein precipitation via liquid chromatography mass spectrometry (LC/MS). PK parameters and half-life were calculated using WinonLin Version 5.2.1 (non-compartment model).

[1] = system: blood glucose of diabetic db/db mice; assay: Glucose lowering in female diabetic dbdb-mice; type: in vivo; settings: 100 μg/kg s.c.
Experimental: Female diabetic dbdb-mice (BKS.Cg− +Leprdb/+Leprdb/OlaHsd) 10 weeks of age at study start were used. Mice were habituated to feeding and housing conditions for at least 2 weeks. 7 days prior to study start, HbA1c were determined to allocate mice to groups, aiming to spread low, medium and high HbA1c-values and in consequence the group-means (n=8), as equally as possible. On the day of study, food was removed, directly before sampling for baseline glucose assessment (t=0 min) Immediately afterwards, compounds or vehicle (phosphor buffered saline, PBS) were administered subcutaneously, 100 μg/kg, 10 ml/kg. Afterwards, blood samples were drawn by tail tip incision at 15, 30, 60, 90, 120, 150, 180, 240, 360, 480 min and 24 h. Food was re-offered after the 480 min-sampling. Data were analysed by 2-W-ANOVA on repeated measurements, followed by Dunnett's test as post-hoc assessment, level of significance p<0.05.

[2] = type: physicochemical; settings: buffer, 168 h
Description: The chemical stability is expressed as “% remaining peptide”.

physchem = type: physicochemical

CC[C@H](C)[C@H](NC(=O)[C@H](Cc1ccccc1)NC(=O)[C@H](CC(C)C)NC(=O)[C@H](CCCNC(=N)N)NC(=O)[C@@H](NC(=O)[C@H](C)NC(=O)[C@H](CCC(=O)O)NC(=O)[C@H](CCCCN)NC(=O)[C@H](CCC(=O)O)NC(=O)[C@H](CC(C)C)NC(=O)[C@H](CC(C)C)NC(=O)[C@H](CCCCN)NC(=O)[C@H](CO)NC(=O)[C@H](CC(C)C)NC(=O)[C@H](CC(=O)O)NC(=O)[C@H](CO)NC(=O)[C@@H](NC(=O)[C@H](Cc1ccccc1)NC(=O)[C@@H](NC(=O)CNC(=O)[C@H](CCC(=O)O)NC(=O)C(C)(C)NC(=O)[C@@H](N)Cc1ccc(O)cc1)[C@@H](C)O)[C@@H](C)O)C(C)C)C(=O)N[C@@H](CCC(=O)O)C(=O)N[C@@H](Cc1c[nH]c2ccccc12)C(=O)N[C@@H](CC(C)C)C(=O)N[C@@H](CCCCN)C(=O)N[C@@H](C)C(=O)NCC(=O)NCC(=O)N1CCC[C@H]1C(=O)N[C@@H](CO)C(=O)N[C@@H](CO)C(=O)NCC(=O)N[C@@H](C)C(=O)N1CCC[C@H]1C(=O)N1CCC[C@H]1C(=O)N1CCC[C@H]1C(=O)N[C@@H](CO)C(N)=O [SEQ ID NO: 8, Y-Aib-EGTFTSDLSKLLEKEAVRLFIEWLKAGGPSSGAPPPS-NH2] (H-Y[Aib]EGTFTSDLSKLLEKEAVRLFIEWLKAGGPSSGAPPPS-NH2)
Cmax (in vivo): 2980 ng/mL
half-life (in vivo): 1.9 h
maximal effect, glucose reduction ([1]; at t=30 min): ~13 mmol/L
reduction of glucose compared to vehicle control ([1]; from t=30 min to 24 h, p<0.05): statistical significant reduction of glucose
Stability (pH 4.5), % remaining peptide ([2]; pH 4.5): 100%
Stability (pH 7.4), % remaining peptide [2]: 100%
solubility at 2 h (physchem; pH 4.5): 320 µg/mL (≈ 76.9 µM)
solubility at 2 h (physchem; pH 7.4): 270 µg/mL (≈ 64.8 µM)

CC[C@H](C)[C@H](NC(=O)[C@H](Cc1ccccc1)NC(=O)[C@H](CC(C)C)NC(=O)[C@H](CCCNC(=N)N)NC(=O)[C@@H](NC(=O)[C@H](C)NC(=O)[C@H](CCC(=O)O)NC(=O)[C@H](CCC(=O)O)NC(=O)[C@H](CCC(=O)O)NC(=O)[C@H](CC(C)C)NC(=O)[C@H](CC(C)C)NC(=O)[C@H](CCCCN)NC(=O)[C@H](CO)NC(=O)[C@H](CC(C)C)NC(=O)[C@H](CC(=O)O)NC(=O)[C@H](CO)NC(=O)[C@@H](NC(=O)[C@H](Cc1ccccc1)NC(=O)[C@@H](NC(=O)CNC(=O)[C@H](CCC(=O)O)NC(=O)C(C)(C)NC(=O)[C@@H](N)Cc1ccc(O)cc1)[C@@H](C)O)[C@@H](C)O)C(C)C)C(=O)N[C@@H](CCC(=O)O)C(=O)N[C@@H](Cc1c[nH]c2ccccc12)C(=O)N[C@@H](CC(C)C)C(=O)N[C@@H](CCCCN)C(=O)N[C@@H](C)C(=O)NCC(=O)NCC(=O)N1CCC[C@H]1C(=O)N[C@@H](CO)C(=O)N[C@@H](CO)C(=O)NCC(=O)N[C@@H](C)C(=O)N1CCC[C@H]1C(=O)N1CCC[C@H]1C(=O)N1CCC[C@H]1C(=O)N[C@@H](CO)C(N)=O [SEQ ID NO: 10, Y-Aib-EGTFTSDLSKLLEEEAVRLFIEWLKAGGPSSGAPPPS-NH2] (H-Y[Aib]EGTFTSDLSKLLEEEAVRLFIEWLKAGGPSSGAPPPS-NH2)
Stability (pH 7.4), % remaining peptide [2]: 100%
solubility at 2 h (physchem; pH 7.4): 990 µg/mL (≈ 238 µM)
